Data on 8 molecules can be found in US20240376097A1, “BCL-2 Inhibitor” (BeiGene Ltd., priority 2020, published 2024).

Where two headings read alike, the source gives them in different places.

The test system of assay [1] is BCL-2 G101V knock-in cell line H96 (derive from RS4;11). Put plainly: Bcl 2-G101V Knock-In RS4;11 Cell Proliferation Assay. The note with it: Homo sapiens, RS4;11 Bcl-2 G101V knock-in clone H96, 48 hrs, CellTiter-GLO, read-out: Cellular proliferation assay (IC50, nM) RS4. The format is cell-based. A digest of the protocol: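 H96, a CRISPR-generated RS4;11 clone carrying BCL2-G101V knock-in (WES/RNA-seq validated), seeded 50,000 per well and exposed 48 h at 37 °C to 10-point dilutions topping at 1 or 10 μM. Viability by CellTiter-Glo luminescence; mean IC50.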

The target in assay [2] is recombinant human Bcl-2-G101V protein (Homo sapiens (Human), UniProt P10415, G101V). The experiment in a line: Bcl-2-G101V TR-FRET Assay. The format is binding. Conditions: Bcl-2 G101V mutant, TR-FRET; read-out: Biochemical assay (IC50, nM) Bcl-2 G101V. A digest of the protocol: (§1)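 Ex337/em490 & 520 nm TR-FRET; % inhibition of Bcl-2-G101V–ligand interaction from 490:520 ratio vs. increasing compound conc.; IC50 by 4-parameter logistic fit.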

In assay [3] the test system is recombinant human Bcl-2-G101V protein. Put plainly: Bcl-2-G101V TR-FRET Assay. The note with it: for Ratio of Bcl-2 G101V/WT: ratio of biochemical IC50 Bcl-2 G101V / Bcl-2 WT. The format is binding. A digest of the protocol:
as §1
(In general: Time-resolved FRET reads energy transfer from a long-lived donor to a nearby acceptor.)

In assay [4] the target is Recombinant human Bcl-2 protein (Homo sapiens (Human), UniProt P10415). The experiment in a line: Bcl-2 TR-FRET Assay. It is filed as binding. A digest of the protocol: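 0.05 nM Bcl-2 pre-incubated 0.5 h at room temperature with 10-point compound dilutions (top final 1, 0.1, 0.02 or 0.01 uM) in 20 mM potassium phosphate pH 7.5, 50 mM NaCl, 1 mM EDTA, 0.05% Tween-20, 0.01% BSA; FITC-Bak peptide (0.5 nM) and anti-6His Tb cryptate added, 1 h. IC50 from four-parameter logistic fit.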

In assay [5] the target is recombinant human Bcl-2 D103Y protein (Homo sapiens (Human), UniProt P10415, D103Y). The experiment in a line: Bcl-2-D103Y Biochemical Assay (TR-FRET). Conditions: for IC50: TR-FRET, FITC labeled Bak peptide; for Ratio of Bcl-2 D103Y/Bcl-2 WT: ratio of IC50. The format is binding. An outline of the steps:
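Recombinant human Bcl-2 D103Y binding to its ligand measured by TR-FRET (ex 337 nm, em 490/520 nm) with increasing compound concentrations. Percent inhibition from the 490/520 nm ratio; IC50 from four-parameter logistic fit.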

The subject of assay [6] is RS4;11 (BCL-2 dependent acute lymphoblastic leukemia cell line). Put plainly: RS4;11 Cell Proliferation Assay. Conditions: Homo sapiens, RS4-11, RS4;11 cells, read-out: Cellular proliferation assay (IC50, nM) RS4. It is filed as cell-based. An outline of the steps: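 RS4;11 cells, 50,000 per well in RPMI-1640 with 10% FBS, treated 48 h at 37 °C with a 10-point dilution series topping at 1 μM. Viability read by CellTiter-Glo ATP luminescence; mean IC50 reported.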

Where [7] appears, read: Bcl-2 wild type, TR-FRET, read-out: Biochemical assay (IC50, nM) Bcl-2 WT.
[8] abbreviates: wild type Bcl-2, unit inferred, read-out: Bcl-2 WT.

Turning to `CC(C)c1ccccc1C1CN(Cc2cccc3c2OCCO3)CCN1C1CC2(CCN(c3ccc(C(=O)NS(=O)(=O)c4ccc(NC[C@H]5CC[C@](C)(O)CC5)c([N+](=O)[O-])c4)c(Oc4cnc5[nH]ccc5c4)c3)CC2)C1` (stereo partly drawn) [Example 79, 2-((1H-pyrrolo[2,3-b]pyridin-5-yl)oxy)-4-(2-(4-((2,3-dihydrobenzo [b][1,4]dioxin-5-yl)methyl)-2-(2-isopropylphenyl)piperazin-1-yl)-7-azaspiro[3.5]nonan-7-yl)-N-((4-((((1r,4r)-4-hydroxy-4-methylcyclohexyl)methyl)amino)-3-nitrophenyl)sulfonyl)benzamide], the IC50 in assay [1] amounted to 1 nM; in assay [2] it was 0.51 nM; in assay [4] (setting [7]), 0.16 nM; in assay [4] (setting [8]), 0.16 nM; in assay [5], 0.19 nM; in assay [6], 0.35 nM. Further, the “Ratio of Bcl-2 G101V/WT” value in assay [3] is listed as 3.2. In addition, the “Ratio of Bcl-2 D103Y/Bcl-2 WT” value in assay [5] worked out at 1.2.
For the molecule `COc1ccc(CN2CCN(C3CC4(CCN(c5ccc(C(=O)NS(=O)(=O)c6ccc(NC[C@H]7CC[C@](C)(O)CC7)c([N+](=O)[O-])c6)c(Oc6cnc7[nH]ccc7c6)c5)CC4)C3)C(c3ccccc3C(C)C)C2)cc1OC` (stereo partly drawn) [Example 81, 2-((1H-pyrrolo[2,3-b]pyridin-5-yl)oxy)-4-(2-(4-(3,4-dimethoxybenzyl)-2-(2-isopropylphenyl)piperazin-1-yl)-7-azaspiro[3.5]nonan-7-yl)-N-((4-((((1r,4r)-4-hydroxy-4-methylcyclohexyl)methyl)amino)-3-nitrophenyl)sulfonyl)benzamide], the IC50 in assay [1] was determined as 0.878 nM; in assay [2], 0.2 nM; in assay [4] (setting [7]) it was 0.038 nM; in assay [4] (setting [8]) it was 0.038 nM; in assay [5] it was 0.084 nM; in assay [6] it was 0.286 nM. Also, the “Ratio of Bcl-2 G101V/WT” value in assay [3] was 5.2. For the same molecule, in assay [5], the “Ratio of Bcl-2 D103Y/Bcl-2 WT” value is listed as 2.2.
Regarding `CC(C)c1ccccc1C1CN(Cc2ccc(S(C)(=O)=O)cc2)CCN1C1CC2(CCN(c3ccc(C(=O)NS(=O)(=O)c4ccc(NC[C@H]5CC[C@](C)(O)CC5)c([N+](=O)[O-])c4)c(Oc4cnc5[nH]ccc5c4)c3)CC2)C1` (stereo partly drawn) [Example 82, 2-((1H-pyrrolo[2,3-b]pyridin-5-yl)oxy)-N-((4-((((1r,4r)-4-hydroxy-4-methylcyclohexyl)methyl)amino)-3-nitrophenyl)sulfonyl)-4-(2-(2-(2-isopropylphenyl)-4-(4-(methylsulfonyl)benzyl)piperazin-1-yl)-7-azaspiro[3.5]nonan-7-yl) benzamide], the IC50 in assay [1] came to 2.67 nM; in assay [2], 0.29 nM; in assay [4] (setting [7]), 0.031 nM; in assay [4] (setting [8]), 0.031 nM; in assay [5], 0.17 nM; in assay [6] it was 0.42 nM. The “Ratio of Bcl-2 G101V/WT” value in assay [3] amounted to 9.5. The “Ratio of Bcl-2 D103Y/Bcl-2 WT” value in assay [5] is given as 5.6.
Turning to `COc1ccc(CN2CCN(C3CC4(C3)CN(c3ccc(C(=O)NS(=O)(=O)c5ccc(NC[C@H]6CC[C@](C)(O)CC6)c([N+](=O)[O-])c5)c(Oc5cnc6[nH]ccc6c5)c3)C4)C(c3ccccc3C(C)C)C2)cc1` (stereo partly drawn) [Example 83, 2-((1H-pyrrolo[2,3-b]pyridin-5-yl)oxy)-N-((4-((((1r,4r)-4-hydroxy-4-methylcyclohexyl)methyl)amino)-3-nitrophenyl)sulfonyl)-4-(6-(2-(2-isopropylphenyl)-4-(4-methoxybenzyl)piperazin-1-yl)-2-azaspiro[3.3]heptan-2-yl) benzamide], the IC50 in assay [1] came out at 0.73 nM; in assay [2], 0.25 nM; in assay [4] (setting [7]), 0.079 nM; in assay [4] (setting [8]), 0.079 nM; in assay [5], 0.16 nM; in assay [6], 0.27 nM. In assay [3] (comparison in words), the “ratio of IC50 of Bcl-2 G101V/Bcl-2 wt, compared with Example F132b in WO2019210828 and ABT-199 (venetoclax)” value was “much lower”. The “Ratio of Bcl-2 G101V/WT” value in assay [3] turned out to be 3.1. Moreover, in assay [5] (comparison in words), the “ratio of Bcl-2 D103Y/Bcl-2 wt, compared with F91b in WO2019210828” value is reported as “significantly lower”. Further, the “Ratio of Bcl-2 D103Y/Bcl-2 WT” value in assay [5] stood at 2.
Consider `CC(C)c1ccccc1C1CN(Cc2cccc3c2OCCCO3)CCN1C1CC2(CCN(c3ccc(C(=O)NS(=O)(=O)c4ccc(NC[C@H]5CC[C@](C)(O)CC5)c([N+](=O)[O-])c4)c(Oc4cnc5[nH]ccc5c4)c3)CC2)C1` (stereo partly drawn) [Example 107, 2-((1H-pyrrolo[2,3-b]pyridin-5-yl)oxy)-4-(2-(4-((3,4-dihydro-2H-benzo[b][1,4]dioxepin-6-yl)methyl)-2-(2-isopropylphenyl)piperazin-1-yl)-7-azaspiro[3.5]nonan-7-yl)-N-((4-((((1r,4r)-4-hydroxy-4-methylcyclohexyl)methyl)amino)-3-nitrophenyl)sulfonyl)benzamide], for which the IC50 in assay [1] turned out to be 1.77 nM; in assay [2], 0.56 nM; in assay [4] (setting [7]), 0.11 nM; in assay [4] (setting [8]), 0.11 nM; in assay [5], 0.31 nM; in assay [6] it was 0.33 nM. In addition, the “Ratio of Bcl-2 G101V/WT” value in assay [3] turned out to be 5.1. The “Ratio of Bcl-2 D103Y/Bcl-2 WT” value in assay [5] is 2.8.
As for `CC(C)c1ccccc1C1CN(Cc2ccc(N(C)C)cc2)CCN1C1CC2(CCN(c3ccc(C(=O)NS(=O)(=O)c4ccc(NC[C@H]5CC[C@](C)(O)CC5)c([N+](=O)[O-])c4)c(Oc4cnc5[nH]ccc5c4)c3)CC2)C1` (stereo partly drawn) [Example 114, 2-((1H-pyrrolo[2,3-b]pyridin-5-yl)oxy)-4-(2-(4-(4-(dimethylamino)benzyl)-2-(2-isopropylphenyl)piperazin-1-yl)-7-azaspiro[3.5]nonan-7-yl)-N-((4-((((1r,4r)-4-hydroxy-4-methylcyclohexyl)methyl)amino)-3-nitrophenyl)sulfonyl)benzamide], the IC50 in assay [1] is 3.65 nM; in assay [2], 0.83 nM; in assay [4] (setting [7]), 0.12 nM; in assay [4] (setting [8]), 0.12 nM; in assay [5] it was 0.4 nM; in assay [6], 0.6 nM. Further, the “Ratio of Bcl-2 G101V/WT” value in assay [3] was determined as 6.9. Further, in assay [5], the “Ratio of Bcl-2 D103Y/Bcl-2 WT” value was found to be 3.4.
For `CC(C)c1ccccc1C1CN(Cc2cccc3c2OCO3)CCN1C1CC2(CCN(c3ccc(C(=O)NS(=O)(=O)c4ccc(NC[C@H]5CC[C@](C)(O)CC5)c([N+](=O)[O-])c4)c(Oc4cnc5[nH]ccc5c4)c3)CC2)C1` (stereo partly drawn) [Example 115, 2-((1H-pyrrolo[2,3-b]pyridin-5-yl)oxy)-4-(2-(4-(benzo[d][1,3]dioxol-4-ylmethyl)-2-(2-isopropylphenyl)piperazin-1-yl)-7-azaspiro[3.5]nonan-7-yl)-N-((4-((((1r,4r)-4-hydroxy-4-methylcyclohexyl)methyl)amino)-3-nitrophenyl)sulfonyl)benzamide], the IC50 in assay [1] came to 2.3 nM; in assay [2], 0.37 nM; in assay [4] (setting [7]), 0.097 nM; in assay [4] (setting [8]), 0.097 nM; in assay [5] it was 0.57 nM; in assay [6], 0.42 nM. The “Ratio of Bcl-2 G101V/WT” value in assay [3] worked out at 3.8. For the same molecule, in assay [5], the “Ratio of Bcl-2 D103Y/Bcl-2 WT” value was 5.9.
Take `COc1cc(CN2CCN(C3CC4(CCN(c5ccc(C(=O)NS(=O)(=O)c6ccc(NC[C@H]7CC[C@](C)(O)CC7)c([N+](=O)[O-])c6)c(Oc6cnc7[nH]ccc7c6)c5)CC4)C3)C(c3ccccc3C(C)C)C2)ccc1F` (stereo partly drawn) [Example 121, 2-((1H-pyrrolo[2,3-b]pyridin-5-yl)oxy)-4-(2-(4-(4-fluoro-3-methoxybenzyl)-2-(2-isopropylphenyl)piperazin-1-yl)-7-azaspiro[3.5]nonan-7-yl)-N-((4-((((1r,4r)-4-hydroxy-4-methylcyclohexyl)methyl)amino)-3-nitrophenyl)sulfonyl)benzamide]: the IC50 in assay [1] stood at 1.13 nM; in assay [2], 1.1 nM; in assay [4] (setting [7]) it was 0.28 nM; in assay [4] (setting [8]), 0.28 nM; in assay [5], 0.42 nM; in assay [6], 0.24 nM. The “Ratio of Bcl-2 G101V/WT” value in assay [3] is recorded as 3.8. Further, the “Ratio of Bcl-2 D103Y/Bcl-2 WT” value in assay [5] came to 1.5.
